Patent US11203576B2, “Aurora kinase and Janus kinase inhibitors for prevention of graft versus host disease” (H. LEE MOFFITT CANCER CENTER AND RESEARCH INSTITUTE, INC., priority 2016, dated 2021)

Columns and labels:
STAT3 (target of JAK2) = assay: STAT3 phosphorylation in T-cells (flow cytometry); type: cell-based, human; settings: in vitro, DC- or IL-6-stimulated, vs DMSO
Method: IL-6-induced pSTAT3 or IL-2-induced pSTAT5 (Y694) was measured by flow cytometry.

[1] = tested on: human skin graft rejection by allogeneic PBMC; assay: Human skin xenograft rejection in NSG mice; type: in vivo; settings: 50 mg/kg daily i.p., + PBMCs, day +21
Method: Using the nondiagnostic mastectomy skin from consenting donors, a 1×1 cm skin graft was transplanted onto immunodeficient NSG mice dorsally. After 30 days of healing, 5×10^6 peripheral blood mononuclear cells (PBMC) from an HLA-disparate random donor was given by i.p. injection. A cohort of mice only received a skin graft without PBMCs, as negative rejection controls. The transplanted mice were treated with AJI-100 (50 mg/kg), a dual JAK2/Aurora A kinase inhibitor, or vehicle daily by i.p. injection. Mice were humanely euthanized on day +21 to assess human anti-human skin rejection pathology. […] Conversely, skin grafts from the mice who received Vehicle+PBMCs show diffuse lymphocytic infiltration of the dermis with exocytosis, a disrupted dermal-epidermal junction, and hyperkeratosis (grade III, FIG. 15B).

[2] = tested on: T-cells allostimulated by dendritic cells (DC); assay: Allogeneic mixed leukocyte reaction (alloMLR), T-cell proliferation; type: cell-based, human
Method: Bulk donor T-cells were allostimulated with allogeneic DCs (DC:T-cell ratio of 1:30) as previously described (OneBlood, Tampa, Fla.)(15, 16, 20). […] As indicated, alloMLRs consisting of Treg depleted, naïve CD4^+ T-cells (Miltenyi Biotec Inc, San Diego, Calif.) were treated with a combination of ARL67156 (CD39 inhibitor, 125 μM, Sigma), AJI, or DMSO on day 0 to study the role of CD39 and ATP in this system. T-cell proliferation was measured on day 5 by a colorimetric assay (CellTiter 96 Aqueous One Solution Cell Proliferation Assay [MTS]; or CellTiter Blue, Promega, Madison, Wis.). Absorbance/optical density (OD) was analyzed at 490 nm or 590 nm, respectively. Proliferation (%)=(OD treated alloMLR−OD T-cells alone)/(OD DMSO alloMLR−OD T-cells alone)×100.

[3] = tested on: xenogeneic GVHD (NSG mice transplanted with human PBMCs); assay: Xenogeneic GVHD model; type: in vivo
Excerpt: After transplantation and treatment with either AJI-100 or vehicle control, human T cells were isolated from recipient mouse spleens at day +14, stained for pH3Ser^10 or pSTAT3 (+IL-6 stimulation), and analyzed as described.
NOD scid gamma (NSG) mice (male or female, 6-24 weeks old) were purchased from Jackson Laboratory (Bar Harbor, Me., USA) and raised per an IACUC-approved protocol in adherence to the NIH Guide for the Care and Use of Laboratory Animals. Mice received either (i) alisertib (30 mg/kg daily), TG101348 (45 mg/kg twice a day), a combination of alisertib and TG101348, or vehicle (methylcellulose) by oral gavage or (ii) AJI-100 (50 mg/kg daily) or vehicle (50% polyethylene glycol, 15% 2-hydroxypropyl-b-cyclodextrin, and 10% DMSO in sterile saline) ip from day 0 to day +14.
Mice were monitored for GVHD clinical scores (K. R. Cooke et al., An experimental model of idiopathic pneumonia syndrome after bone marrow transplantation: I. The roles of minor H antigens and endotoxin. Blood 88, 3230 (1996)), weight, and premoribund status. As indicated, mice were euthanized on day +14 to study recipient spleen Tconv, Tregs, TH1, TH17, B cells, and T-cell signal transduction. Human CD4^+ Treg (CD25+, CD127^−, Foxp3^+), Tconv(CD25^+, CD127^+), TH1, TH17, and CD19^+ B cells residing in recipient spleens were quantified by flow cytometry. T-cell pH3 ser10 and PSTAT3 were evaluated by flow cytometry. IL-17 ELISPOTs were performed using isolated human T cells from recipient mouse spleen as described above. Tissue samples were prepared, stained (Ventana Medical Systems, Tucson, Ariz.), and imaged (Vista, Calif., USA) to identify human T-cells as previously described. All vertebrate animal work was IACUC-approved.

JAK2 = JAK2 (Homo sapiens, UniProt O60674); assay: Kinase target screen, panel of 140 kinases; type: biochemical
Sequence of JAK2 (O60674 whole entry): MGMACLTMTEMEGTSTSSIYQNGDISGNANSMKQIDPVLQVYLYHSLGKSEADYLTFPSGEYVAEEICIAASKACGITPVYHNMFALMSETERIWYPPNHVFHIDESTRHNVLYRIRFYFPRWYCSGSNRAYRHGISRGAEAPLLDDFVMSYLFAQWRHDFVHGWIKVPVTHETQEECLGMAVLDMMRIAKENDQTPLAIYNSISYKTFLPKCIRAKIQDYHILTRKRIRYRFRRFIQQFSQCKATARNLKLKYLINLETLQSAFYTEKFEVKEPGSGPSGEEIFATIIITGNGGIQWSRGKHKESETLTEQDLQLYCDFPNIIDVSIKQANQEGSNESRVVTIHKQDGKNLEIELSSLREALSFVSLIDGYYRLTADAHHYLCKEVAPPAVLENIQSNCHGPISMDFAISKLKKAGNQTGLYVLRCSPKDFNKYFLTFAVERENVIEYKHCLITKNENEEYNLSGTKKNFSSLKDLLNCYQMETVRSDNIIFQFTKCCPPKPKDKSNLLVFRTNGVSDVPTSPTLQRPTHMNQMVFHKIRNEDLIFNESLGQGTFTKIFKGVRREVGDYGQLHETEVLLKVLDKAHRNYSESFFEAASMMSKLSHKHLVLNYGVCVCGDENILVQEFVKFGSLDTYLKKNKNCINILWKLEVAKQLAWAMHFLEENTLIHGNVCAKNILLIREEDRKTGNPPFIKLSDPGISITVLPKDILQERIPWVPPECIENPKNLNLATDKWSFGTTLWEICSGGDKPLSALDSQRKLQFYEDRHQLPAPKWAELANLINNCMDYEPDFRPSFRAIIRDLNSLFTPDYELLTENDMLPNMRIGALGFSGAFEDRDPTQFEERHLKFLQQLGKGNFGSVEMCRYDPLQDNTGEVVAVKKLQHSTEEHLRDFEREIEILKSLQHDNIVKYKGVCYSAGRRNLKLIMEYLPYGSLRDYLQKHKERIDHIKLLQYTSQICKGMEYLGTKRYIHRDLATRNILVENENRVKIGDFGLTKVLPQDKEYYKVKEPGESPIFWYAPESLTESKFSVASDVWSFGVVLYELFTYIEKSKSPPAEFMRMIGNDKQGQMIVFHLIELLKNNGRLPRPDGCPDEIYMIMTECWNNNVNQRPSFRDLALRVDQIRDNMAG
Method: Allogeneic mixed leukocyte reactions (alloMLRs) are standard assays used to assess human T cell proliferation against polyclonal or antigen-specific stimuli. In alloMLRs consisting of human T cells and allogeneicmonocyte-derived dendritic cells (DCs), the JAK2 inhibitor TG101348 reduced alloreactive T cell proliferation at concentrations of 350 nM and greater as previously reported (FIG. 9A). […] Synergistic suppression of T cells allostimulated by DCs was achieved when TG101348 and alisertib were added together at a ratio of 1:5, respectively, with a calculated combination index (CI) of <1 using the Chou-Talalay method (FIG. 9A). […] The chemical analogs AJI-214 and AJI-100 were designed and synthesized at the Moffitt Cancer Center and shown to inhibit Aurora kinase A and JAK2 with similar potency. […] Because AJI-100 is tolerated in mouse models, a kinase target screen was performed on AJI-100 to verify its activity against Aurora kinase A and JAK2 among a panel of 140 kinases.

Bioavailability = settings: in vivo
Solubility = type: physicochemical; settings: relative to the ortho-chloro analogue
U937 cells = assay: CTL generation and tumor lysis assays; type: cell-based, human; settings: NSG mice, 50 mg/kg daily, irradiated U937 on days 0 and +7, vs vehicle; listed as AJI-100
Method: NSG mice were transplanted with human PBMCs as described above, and treated with either AJI-100 (50 mg/kg daily) or vehicle control. Additionally, recipient mice received an inoculum of irradiated U937 cells (ATCC, 10^7/mouse) on days 0 and +7. Mice were euthanized between days +10 to +12, spleens were harvested, and human CD8^+ T-cells were isolated by magnetic bead separation. Fresh U937 target cells were labeled with Calcein-AM for 30 minutes, washed, and then cultured with the purified CD8^+ T-cells at varying effector to target ratios for 4 hours at 37° C. No additional drugs were added during this final culture. […] Percent lysis was calculated as follows: [(test fluorescence−spontaneous fluorescence)/(maximum fluorescence−spontaneous fluorescence)]×100.

[4] = day +14, 50 mg/kg daily, vs vehicle

NC(=O)c1ccc(Nc2ncc(F)c(Nc3ccccc3)n2)cc1 [bisanilinopyrimidine (II), 5-Fluoro-N4-phenyl-N2-[4-(4-carboxamide)phenyl]pyrimidine-2,4-diamine]
STAT3 (pSTAT3 Y705) phosphorylation in T-cells (STAT3 (target of JAK2)): less STAT3 phosphorylation
STAT3 (pSTAT3 Y705) phosphorylation in T-cells (STAT3 (target of JAK2); listed as AJI-100): reducing the phosphorylation
skin graft rejection grade (Bejarano scoring system) [1]: grade I
IC50 ([2]; Homo sapiens, single agent added once on day 0, proliferation on day 5, DC:T-cell ratio 1:30, read-out: IC50, T-cell proliferation in alloMLR): 0.2 µM
suppression of T cells in alloMLRs ([2]; single agent, nanomolar concentrations, vs DMSO): significant suppression
overall survival ([3]; 50 mg/kg daily i.p. day 0 to +14, 56 days of observation): 71.4%
overall survival of the mice ([3]; AJI-100 50 mg/kg daily ip day 0 to +14, vs vehicle): significantly improved
H3 ser10 phosphorylation in human T-cells harvested from mice [3, 4]: less H3 ser10 phosphorylation
pSTAT3+ human T cells harvested from recipient spleens [3, 4]: significantly reduced
H3 ser10 phosphorylation in human T-cells harvested from mice ([3]; day +14, 50 mg/kg daily, vs vehicle, listed as AJI-100): significantly reduced
GVHD severity (pathology) in liver and lung ([3]; day +14, vs vehicle): significantly reduced
Treg frequency in the liver ([3]; day +14, vs vehicle): similar
absolute number of Tregs in recipient spleens ([3]; day +14, vs vehicle): significantly reduced
absolute number of activated CD4+ Tconv in recipient spleens ([3]; day +14, vs vehicle): significantly reduced
absolute number of total CD4+ T cells in recipient spleens ([3]; day +14, vs vehicle): significantly reduced
absolute number of total spleen cells and human CD3+ T-cells in spleens ([3]; day +14, vs vehicle): similar
percentage of CD4+ alloreactive Tconv in the spleen ([3]; day +14, vs vehicle): similar
ratio of human Treg to CD4+ alloreactive/activated Tconv in recipient spleens ([3]; day +14, vs vehicle): significantly increased
relative amount of human Tregs in the spleen ([3]; day +14, vs vehicle): significantly increased
spleen-resident human TH1 T cells ([3]; day +14, vs vehicle): significantly reduced
spleen-resident human TH17 T cells ([3]; day +14, vs vehicle): significantly reduced
tissue-infiltrating human T cells in recipient liver (and lung) ([3]; day +14, vs vehicle): dramatically reduced
tissue-infiltrating human T cells in recipient liver (and lung) ([3]; day +14, vs vehicle, listed as AJI-100): significantly decreased
surviving mice with limited fur/skin changes without significant weight loss ([3]; day +56): 60%
onset and severity of GVHD ([3]; dosing day 0 to +14, vs vehicle): reduced the severity of GVHD
tolerability in mouse models ([3]; mouse, in vivo): tolerated
average GVHD clinical scores ([3]; surviving treated mice at day +56): < 2
CD8+ T cell and CD19+ B cell reconstitution (absolute numbers) ([3]; vs vehicle): suppressive effect
frequencies of CD4+ and CD8+ T cells and CD19+ B cells ([3]; vs vehicle): similar
inhibition of JAK2 in kinase panel (JAK2): among the top three kinases inhibited
bioavailability (Bioavailability): superior bioavailability
solubility (Solubility): enhancing its solubility
in vivo generation of U937-specific CTL and killing of U937 targets (U937 cells): did not inhibit CTL generation
